In PubChem BioAssay AID1963451 (Molecular Pharmacology Branch, DTP, NCI, 2024):
pIC50: −log10 of the molar value.

Tested on: 521955-158-R6-J3-PDC complex spheroid growth, % test/control
Experiment: Anticancer human tumor 521955-158-R6-J3-PDC patient-derived pancreatic carcinoma cell line growth inhibition [Asc]
Conditions: for pIC50: curve of first compound; for viability, T/C: stronger effect = lower value
How it was run: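 Complex spheroids combining tumor cells with HUVEC endothelial cells and human MSCs, at 37 degrees C, 5% CO2; agents tested alone or combined, half-log dilutions from at or near clinical Cmax, or 10 microM if Cmax unknown.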

[1] = second compound 0.00949 µM, first compound 0.0316 µM
[2] = second compound 0.00949 µM, first compound 0.1 µM
[3] = second compound 0.00949 µM, first compound 0.316 µM
[4] = second compound 0.00949 µM, first compound 1 µM
[5] = second compound 0.03 µM, first compound 0.0316 µM
[6] = second compound 0.03 µM, first compound 0.1 µM
[7] = second compound 0.03 µM, first compound 0.316 µM
[8] = second compound 0.03 µM, first compound 1 µM
[9] = second compound 0.0949 µM, first compound 0.0316 µM
[10] = second compound 0.0949 µM, first compound 0.1 µM
[11] = second compound 0.0949 µM, first compound 0.316 µM
[12] = second compound 0.0949 µM, first compound 1 µM
[13] = second compound 0.3 µM, first compound 0.0316 µM
[14] = second compound 0.3 µM, first compound 0.1 µM
[15] = second compound 0.3 µM, first compound 0.316 µM
[16] = second compound 0.3 µM, first compound 1 µM
[17] = second compound 0.949 µM, first compound 0.0316 µM
[18] = second compound 0.949 µM, first compound 0.1 µM
[19] = second compound 0.949 µM, first compound 0.316 µM
[20] = second compound 0.949 µM, first compound 1 µM
[21] = second compound 3 µM, first compound 0.0316 µM
[22] = second compound 3 µM, first compound 0.1 µM
[23] = second compound 3 µM, first compound 0.316 µM
[24] = second compound 3 µM, first compound 1 µM
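Note: spheroids exposed to compounds for 7 days.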
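Throughout, for viability, T/C: 100% = DMSO vehicle control wells.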

Compound `C#Cc1c(F)ccc2cc(O)cc(-c3ncc4c(N5CC6CCC(C5)N6)nc(OCC56CCCN5CC(F)C6)nc4c3F)c12` (centres undefined) + CCN1C(C(=O)NC23CCC(C(=O)O)(CC2)CC3)C(c2cccc(Cl)c2F)C2(C(=O)Nc3cc(Cl)ccc32)C12CCCCC2 has a pIC50 (second compound 0.00949 µM) of 6.29, a pIC50 (second compound 0.03 µM) of 6.48 and a pIC50 (second compound 0.0949 µM) of 6.67. It also gave a pIC50 (second compound 0.3 µM) of 6.65, a pIC50 (second compound 0.949 µM) of 6.04 and a pIC50 (second compound 3 µM) of over 7.50. The viability, T/C [1] was 76.9%, the viability, T/C [2] was 60.5% and the viability, T/C [3] was 50.2%. The viability, T/C [4] was 49.1%, the viability, T/C (second compound 0.00949 µM, first compound 3.16 µM) was 39.3% and the viability, T/C (second compound 0.00949 µM, first compound 10 µM) was 28.2%. It also gave a viability, T/C [5] of 72.2%, a viability, T/C [6] of 58% and a viability, T/C [7] of 47.1%. For the same compound, the viability, T/C [8] was 45.4%, the viability, T/C (second compound 0.03 µM, first compound 3.16 µM) was 41.4% and the viability, T/C (second compound 0.03 µM, first compound 10 µM) was 31.7%. The viability, T/C [9] was 81.6%, the viability, T/C [10] was 55.8% and the viability, T/C [11] was 46.5%. It also gave a viability, T/C [12] of 40.2%, a viability, T/C (second compound 0.0949 µM, first compound 3.16 µM) of 43.6% and a viability, T/C (second compound 0.0949 µM, first compound 10 µM) of 30.3%. It also gave a viability, T/C [13] of 72.1%, a viability, T/C [14] of 65.9% and a viability, T/C [15] of 42.4%. It also gave a viability, T/C [16] of 40.4%, a viability, T/C (second compound 0.3 µM, first compound 3.16 µM) of 39.2% and a viability, T/C (second compound 0.3 µM, first compound 10 µM) of 29.3%. The viability, T/C [17] was 68.3%, the viability, T/C [18] was 66% and the viability, T/C [19] was 51%. For the same compound, the viability, T/C [20] was 53%, the viability, T/C (second compound 0.949 µM, first compound 3.16 µM) was 41.7% and the viability, T/C (second compound 0.949 µM, first compound 10 µM) was 34.2%. It also gave a viability, T/C [21] of 57.9%, a viability, T/C [22] of 48.4% and a viability, T/C [23] of 51%. It also gave a viability, T/C [24] of 41.3%, a viability, T/C (second compound 3 µM, first compound 3.16 µM) of 50.4% and a viability, T/C (second compound 3 µM, first compound 10 µM) of 25.7%.

Compound `CNC(C)C(=O)NC1CN(S(=O)(=O)c2cccc(S(=O)(=O)N3CCC4CCC(C(=O)NC(c5ccccc5)c5ccccc5)N4C(=O)C(NC(=O)C(C)NC)C3)c2)CCC2CCC(C(=O)NC(c3ccccc3)c3ccccc3)N2C1=O` (centres undefined) + CCN1C(C(=O)NC23CCC(C(=O)O)(CC2)CC3)C(c2cccc(Cl)c2F)C2(C(=O)Nc3cc(Cl)ccc32)C12CCCCC2 has a pIC50 (second compound 0.00949 µM) of under 6.00, a pIC50 (second compound 0.03 µM) of under 6.00 and a pIC50 (second compound 0.0949 µM) of under 6.00. The pIC50 (second compound 0.3 µM) was under 6.00, the pIC50 (second compound 0.949 µM) was under 6.00 and the pIC50 (second compound 3 µM) was under 6.00. The viability, T/C (second compound 0.00949 µM, first compound 0.00316 µM) was 110%, the viability, T/C (second compound 0.00949 µM, first compound 0.01 µM) was 95.2% and the viability, T/C [1] was 83.7%. For the same compound, the viability, T/C [2] was 89.8%, the viability, T/C [3] was 89.7% and the viability, T/C [4] was 89.7%. The viability, T/C (second compound 0.03 µM, first compound 0.00316 µM) was 91.8%, the viability, T/C (second compound 0.03 µM, first compound 0.01 µM) was 96% and the viability, T/C [5] was 113%. The viability, T/C [6] was 101%, the viability, T/C [7] was 69% and the viability, T/C [8] was 81.5%. For the same compound, the viability, T/C (second compound 0.0949 µM, first compound 0.00316 µM) was 102%, the viability, T/C (second compound 0.0949 µM, first compound 0.01 µM) was 89.9% and the viability, T/C [9] was 92.3%. The viability, T/C [10] was 86.9%, the viability, T/C [11] was 76.9% and the viability, T/C [12] was 86.2%. It also gave a viability, T/C (second compound 0.3 µM, first compound 0.00316 µM) of 96.2%, a viability, T/C (second compound 0.3 µM, first compound 0.01 µM) of 111% and a viability, T/C [13] of 100%. The viability, T/C [14] was 99.8%, the viability, T/C [15] was 93.5% and the viability, T/C [16] was 95%. The viability, T/C (second compound 0.949 µM, first compound 0.00316 µM) was 106%, the viability, T/C (second compound 0.949 µM, first compound 0.01 µM) was 85.1% and the viability, T/C [17] was 93.7%. The viability, T/C [18] was 101%, the viability, T/C [19] was 96.8% and the viability, T/C [20] was 109%. It also gave a viability, T/C (second compound 3 µM, first compound 0.00316 µM) of 95%, a viability, T/C (second compound 3 µM, first compound 0.01 µM) of 96% and a viability, T/C [21] of 108%. For the same compound, the viability, T/C [22] was 86.2%, the viability, T/C [23] was 96.6% and the viability, T/C [24] was 80.8%.
